Measurements published in patent US20200330484A1, “STEROIDAL COMPOUNDS FOR TREATMENT OF MENTAL AND NEUROLOGICAL DISORDERS” (USTAV ORGANICKE CHEMIE A BIOCHEMIE AV CR, V.V.I., priority 2017, published 2020).
Read-outs that look alike come from different tables or passages of the source.

How the values were obtained:
hGluN1/hGluN2B(V558I) [1] = target: T1, hGluN1/hGluN2B(V558I) (Homo sapiens, UniProt Q05586+Q13224, V558I); settings: read-out: Glutamate EC50; calculated from ratio of responses to two glutamate concentrations, h fixed at 1.4
hGluN1/hGluN2B(V618G) [2] = target: T2, hGluN1/hGluN2B(V618G) (Homo sapiens, UniProt Q05586+Q13224, V618G); settings: read-out: Glutamate EC50; calculated from ratio of responses to two glutamate concentrations, h fixed at 1.4
hGluN1/hGluN2B(L825V) [3] = target: T3, hGluN1/hGluN2B(L825V) (Homo sapiens, UniProt Q05586+Q13224, L825V); settings: read-out: Glutamate EC50; calculated from ratio of responses to two glutamate concentrations, h fixed at 1.4
hGluN1/hGluN2B(G820A) [4] = target: T4, hGluN1/hGluN2B(G820A) (Homo sapiens, UniProt Q05586+Q13224, G820A); settings: read-out: Glutamate EC50; calculated from ratio of responses to two glutamate concentrations, h fixed at 1.4
hGluN1/hGluN2B(V558I) [5] = target: T1, hGluN1/hGluN2B(V558I); experiment: cell-based; settings: read-out: Glycine EC50
hGluN1/hGluN2B(G820A) [6] = target: T4, hGluN1/hGluN2B(G820A); experiment: cell-based; settings: read-out: Glycine EC50
hGluN1/hGluN2B(L825V) [7] = target: T3, hGluN1/hGluN2B(L825V); experiment: cell-based; settings: read-out: Glycine EC50
hGluN1/hGluN2B(V618G) [8] = target: T2, hGluN1/hGluN2B(V618G); experiment: cell-based; settings: read-out: Glycine EC50
hGluN1/hGluN2B(N615I) = hGluN1/hGluN2B(N615I) (Homo sapiens, UniProt Q05586+Q13224, N615I); experiment: cell-based; settings: read-out: Glycine EC50
hGluN1/hGluN2B(E657G) = hGluN1/hGluN2B(E657G) (Homo sapiens, UniProt Q05586+Q13224, E657G); experiment: cell-based; settings: read-out: Glycine EC50
hGluN1/hGluN2B(L825V) [9] = target: T3, hGluN1/hGluN2B(L825V); experiment: Whole-cell patch clamp, steroid potentiation of responses tonically activated by low concentration of glutamate; assay type: cell-based; set-up: expressed in transfected cells; host or cells: HEK293T; settings: PA-But 15 μmol · l^−1; HEK293T; mean ± SEM
Description: (§1) Human embryonic kidney-293T (HEK293T) cells were used for transfection of human genes encoding for NMDA receptor subunits: hGluN1 (GenBank, accession number NP_015566) and hGluN2B (GenBank, accession number NP_000825). Equal amounts ([…]) of DNA encoding for GluN1 and GluN2B were mixed with 0.9 μl Matra-A Reagent (IBA, Gottingen, Germany) and added to confluent HEK293T cells. After trypsinization, the cells were resuspended in Opti-MEM I (ThermoFisher Scientific, Paisley, UK; Cat. #31985062) containing 1% fetal bovine serum supplemented with 15 mmol·l^−1 MgCl2, 1 mmol·l^−1 D,L-2-amino-5-phosphonopentanoic acid (D,L-AP5), and 1 μmol.l^−1 ketamine.
(§2) Mutations in the GluN2B subunit were made using the QuickChange Site-Directed Mutagenesis Kit (Agilent Technologies, Santa Clara, Calif., USA) according to the manufacturer's instructions. Mutated cDNA was transformed into ultra-competent XL1Gold E. coli cells, multiplied, positive clones were selected, and the isolated plasmide DNA was verified by sequencing (SEQme s.r.o., Dobris, Czechia, or GATC Biotech AG, Constance, Germany) All mutations were verified by DNA sequencing. Transfected HEK293T cells were identified by GFP epifluorescence. The amino acids are numbered on the basis of the full-length protein, including the signal peptide.
(§3) Experiments were performed 12-36 h after the end of transfection on cultured HEK293T cells transfected with vectors containing hGluN1/hGluN2B/GFP. Whole-cell voltage clamp current recordings were performed at room temperature (21-25° C.) at a holding potential of −60 mV using a patch-clamp amplifier (Axopatch 200B; Molecular Devices, Sunnyvale, Calif., USA) after a capacitance and series resistance (<10 MΩ) compensation of 80-90%. Data were collected (low-pass filtered at 2 kHz and sampled at 10 kHz) and analyzed using pClamp 10 (Molecular Devices). Patch pipettes (3-5 MΩ) were filled with an intracellular solution (ICS) containing (in mmol·l^−1): 120 gluconic acid, 15 CsCl, 10 BAPTA, 10 HEPES, 3 MgCl2, 1 CaCl2, and 2 ATP-Mg salt (pH-adjusted to 7.2 with CsOH) and extracellular solution (ECS) contained the following (in mmol·l^−1): 160 NaCl, 2.5 KCl, 10 HEPES, 10 glucose, 0.2 EDTA, and 0.7 CaCl2) (pH-adjusted to 7.3 with NaOH). […] The tested steroid solutions were made from freshly prepared 20 mmol·l^−1 20-oxopregn-5en-3β-yl sulfate (PE-S; pregnenolone sulfate), 5 mmol·l^−1 androst-5-en-3β-yl hemisuccinate (AND-hSuc), or 10 mmol·l^−1 20-oxo-5β-pregnan-3-yliden-4′-but-2-enoic acid stock in dimethyl sulfoxide (DMSO). The final dilution to ECS was made at 50° C. and followed by 1 min sonication (SONOREX DIGITEC DT 100/H, BADELIN electronic, Berlin, Germany) The same concentration of DMSO was added to all extracellular solutions. Control and test solution applications were made with a microprocessor-controlled multibarrel fast-perfusion system. The solution exchange rate was ˜15 ms. The following mutations of the gene encoding for hGluN2B subunit (GRIN2B) were tested: P553L; V558I; W607C; N615I; V618G; S628F; E657G; G820E; G820A; M824R; L825V. These mutations are located in the preM1, M2, M3, and M4 transmembrane domains of the receptor (FIG. 1).

hGluN1/hGluN2B(V618G) [10] = target: T2, hGluN1/hGluN2B(V618G); experiment: as above; assay type: cell-based; set-up: expressed in transfected cells; host or cells: HEK293T; settings: PA-But 15 μmol · l^−1; HEK293T; mean ± SEM
Description: as §1, §2, §3

hGluN1/hGluN2B(G820A) [11] = target: T4, hGluN1/hGluN2B(G820A); experiment: as above; assay type: cell-based; set-up: The amino acids are numbered on the basis of the full-length protein, including the signal peptide; expressed in transfected cells; host or cells: HEK293T; settings: PA-But 15 μmol · l^−1; HEK293T; mean ± SEM
Description: as §1, §2, §3

hGluN1/hGluN2B(V558I) [12] = target: T1, hGluN1/hGluN2B(V558I); experiment: as above; assay type: cell-based; set-up: The amino acids are numbered on the basis of the full-length protein, including the signal peptide; expressed in transfected cells; host or cells: HEK293T; settings: PA-But 15 μmol · l^−1; HEK293T; mean ± SEM
Description: as §1, §2, §3

[13] = target: T5, hGluN1/hGluN2B (WT) receptors (Homo sapiens, UniProt Q05586+Q13224); experiment: as above; assay type: cell-based; settings: PA-But 15 μmol · l^−1; HEK293T; mean ± SEM
T5 construct: expressed in transfected cells; host or cells: HEK293T
Description: as §1, §2, §3

[14] = test system: C57BL/6 mice (control) and BALB/c mice; experiment: Three-chamber social behavior test; assay type: in vivo; settings: intraperitoneal, 1 and 10 mg/kg, dissolved in cyclodextrine
Excerpt: In in vivo experiments, the effect of the steroid 20-oxo-5β-pregnan-3-ylidene-4′-but-2-enoic acid on C57BL/6 mice (control) and BALB/c mice was compared. BALB/c mice show a higher rate of anxiety behavior and lower socialization, which is considered to be a certain equivalent of autistic manifestations in humans.

`N[C@@H](CCC(=O)O)C(=O)O` [Glutamate, glutamate] showed a potency estimated from few doses (hGluN1/hGluN2B(V558I) [1]) of 1600 ± 300 nM, a potency estimated from few doses (hGluN1/hGluN2B(V618G) [2]) of 1800 ± 200 nM and a potency estimated from few doses (hGluN1/hGluN2B(L825V) [3]) of 1600 ± 200 nM. The potency estimated from few doses (hGluN1/hGluN2B(G820A) [4]) was 1500 ± 300 nM.

`NCC(=O)O` [Glycine, glycine] was tested, and the potency estimated from few doses (hGluN1/hGluN2B(V558I) [5]) was 220 ± 50 nM, the potency estimated from few doses (hGluN1/hGluN2B(G820A) [6]) was 200 ± 90 nM and the potency estimated from few doses (hGluN1/hGluN2B(L825V) [7]) was 160 ± 10 nM. The potency estimated from few doses (hGluN1/hGluN2B(V618G) [8]) was 270 ± 20 nM, the potency estimated from few doses (hGluN1/hGluN2B(N615I)) was 310 ± 20 nM and the potency estimated from few doses (hGluN1/hGluN2B(E657G)) was 390 ± 80 nM.

For `CC(=O)[C@H]1CC[C@H]2[C@@H]3CC[C@@H]4CC(=CC=CC(=O)O)CC[C@]4(C)[C@H]3CC[C@]12C` [PA-But, 20-oxo-5β-pregnan-3-ylidene-4′-but-2-enoic acid], the “Potentiating effect (%)” value (hGluN1/hGluN2B(L825V) [9]) was 577 ± 78 (10)^††; %, the “Potentiating effect (%)” value (hGluN1/hGluN2B(V618G) [10]) was 67 ± 12 (3)^††; % and the “Potentiating effect (%)” value (hGluN1/hGluN2B(G820A) [11]) was 7 ± 3 (5)^††; %. The “Potentiating effect (%)” value (hGluN1/hGluN2B(V558I) [12]) was −9 ± 5 (4)^††; %, the “Potentiating effect (%)” value [13] was 212 ± 19 (22) % and the “Social behavior (interest in the second mouse cage vs an empty cage)” value [14] was “greater interest in the second mouse cage than in an empty cage”.
